In article PMC10987480, “Biological and mutational analyses of CXCR4–antagonist interactions and design of new antagonistic analogs” (Bioscience Reports, 2023):
Positions of bridges follow the written chain, without caps; N, C: chain ends. Non-standard residues stand in square brackets, D forms with d. Residues, ends and D or L forms follow the SMILES beside them. Chains are numbered I, II in the order given. No end group written: not given here. 2Nal = N[C@@H](Cc1ccc2ccccc2c1)C(=O)O; Lys(iPr) = CC(C)NCCCC[C@H](N)C(=O)O

Assays:
CXCR4 [1] = conditions: previous studies by others; read-out: IC50, inhibition of calcium mobilization; cited from earlier work
Description: To understand the receptor–ligand recognition mechanism involving CXCR4 and its antagonists, here in this study we conducted a series of comparative analyses of the biological activities and CXCR4 binding sites of eleven known CXCR4 antagonists, including the three mentioned above, using cell-based bioassays, CXCR4 site-directed mutagenesis and computer-aided molecular modeling.

CXCR4 [2] = target: T1, CXCR4 (Homo sapiens, UniProt P61073); assay: CXCR4-mediated internalization assay, CHO cells expressing CXCR4-EGFP (confocal); assay type: cell-based; set-up: expressed in transfected cells; conditions: same concentrations as in calcium mobilization assay; 50 nM SDF-1α; compared with their effect on calcium mobilization
Experimental: Figure 3 The inhibitory effect of the antagonists on CXCR4 internalization CHO cells expressed CXCR4-EGFP conjugates were seeded in 96-well plate with glass bottom. Untreated cells were used as a control. Cells were pre-treated with or without CXCR4 antagonists and internalized with 50 nM SDF-1α (scale bar: 5 μm). The concentrations of the antagonists used were the same as those for the calcium mobilization assay shown above. The data shown were representative of three independent experiments.
CXCR4 and EGFP were amplified using a primer shown in Supplementary Table S1. The pcDNA3 vector was digested by restriction-enzyme EcoR1 and Apa1. CXCR4 was digested by restriction-enzyme EcoR1 and Xba1. EGFP was digested by restriction-enzyme Xba1 and Apa1. CXCR4–EGFP conjugate was constructed by ligation of three DNA fragments using T4 ligase. The vector containing CXCR4 ligated EGFP at the C-terminus was transfected and expressed in CHO cells in 100 μl DMEM medium supplemented with 2% FBS at 1 × 10^5/ml which was seeded in 96-well black plate glass bottom and incubated at 37°C overnight. Following incubation with tested compounds for 10 min, 50 nM of SDF-1α was added to each well and the internalized CXCR4 was observed using a confocal microscopy (Zeiss LSM880).

CXCR4 [3] = target: T1, CXCR4; set-up: expressed in transfected cells; conditions: previously published result; ref 42 (table footnote; text b13 cites 46); read-out: IC50 (nM), inhibition of 12G5 binding to CXCR4; cited from earlier work
Description: Table 1 Sequences and structures of eleven antagonists | column: IC50 (nM)

T1 sequence (P61073 whole entry): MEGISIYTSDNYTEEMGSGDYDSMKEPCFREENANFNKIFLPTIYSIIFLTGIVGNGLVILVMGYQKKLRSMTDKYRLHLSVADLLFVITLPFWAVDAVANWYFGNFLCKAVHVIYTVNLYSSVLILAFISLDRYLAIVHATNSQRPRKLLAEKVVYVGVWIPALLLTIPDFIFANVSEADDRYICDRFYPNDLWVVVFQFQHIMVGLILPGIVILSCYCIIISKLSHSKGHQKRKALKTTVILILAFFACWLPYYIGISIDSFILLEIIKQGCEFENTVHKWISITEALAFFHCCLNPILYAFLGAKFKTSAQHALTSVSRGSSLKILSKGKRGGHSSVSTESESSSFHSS

## NCCCCN(Cc1nc2ccccc2[nH]1)[C@H]1CCCc2cccnc21 [AMD11070]
CXCR4 [1]
  IC50: 9 nM

## CC(C)NCCCC[C@H](NC(=O)[C@H]1CCC(=O)N[C@@H](Cc2ccccc2)C(=O)N[C@@H](Cc2ccc(O)cc2)C(=O)N[C@@H](CCCCNC(C)C)C(=O)N[C@H](CCCNC(=N)N)C(=O)N[C@@H](Cc2ccc3ccccc3c2)C(=O)NCC(=O)N1)C(N)=O [LY2510924] (FY[Lys(iPr)][dR][2Nal]G[dE][Lys(iPr)]-NH2; lactam N-7 (inferred))
CXCR4 [2]
  Effect on blocking CXCR4 endocytosis (in words): lessened effect

## I: [dL]G[dA][dS][dW][dH][dR][dP][dD][dK][dC][dC][dL]G[dY][dQ][dK][dR][dP][dL][dP] / II: [dL]G[dA][dS][dW][dH][dR][dP][dD][dK][dC][dC][dL]G[dY][dQ][dK][dR][dP][dL][dP] (disulfide I:11-II:11, I:12-II:12) [DV1 dimer]
CXCR4 [2]
  Effect on blocking CXCR4 endocytosis (in words): lessened effect

## LGASWHRPDKCCLGYQKRPLPQVLLSSWYPTSQLCSKPGVIFLTKRGRQVCADKSKDWVKKLMQQLPVTAR [vMIP-II, viral macrophage-inflammatory protein-II, full-length natural chemokine antagonist produced by human herpesvirus-8; recombinant from Peprotech]
CXCR4 [3]
  IC50: 10 nM
